The source of these data is article PMC4977651, “Molecular features of biguanides required for targeting of mitochondrial respiratory complex I and activation of AMP-kinase” (BMC Biology, 2016).

SMILES strings stand for the structures. Values joined by “and” are separate entries in the source; they are usually repeats but may differ in a detail not shown here. Equal entries are not always repeated.

The test system of assay [1] is bovine mitochondrial membranes (complexes II-III-IV). As to the kind of experiment: Succinate:O2 oxidoreduction (complexes II-III-IV, complex II assay) by bovine mitochondrial membranes. The settings on record: biguanide concentrations set to the IC50 values for NADH:O2 on bovine membranes; control = 100.00; n = 3. The class given is biochemical, Bos taurus. The essentials: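 Membranes at 40 μg mL^−1 with 5 mM succinate in 10 mM Tris-HCl pH 7.4, read in a plate reader at 32 °C. Controls carried NaCl to match ionic strength or DMSO.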

In assay [2] the test system is MDBK cells. Nature of the assay: Rotenone-sensitive oxygen consumption rate in intact MDBK cells. The class given is cell-based, Bos taurus. Details: key to rotenone sensitive OCR after 40 mins of biguanide exposure / rotenone sensitive OCR after 40 mins of biguanide exposure, average: % of OCR recorded immediately before biguanide addition. The method in brief: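 Intact 143B, HepG2 and MDBK cells were measured on a Seahorse XF96 at 37 °C in DMEM-based buffer (glucose, 1 mM pyruvate, 20 mM HEPES, pH 7.4). Biguanides were added at IC50/10 and followed ~6 h, then rotenone (2 μM). The rotenone-insensitive rate was subtracted, OCR was normalized to the pre-biguanide value, and uptake rate was taken relative to time-matched controls.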

In assay [3] the test system is permeabilized MDBK cells. As to the kind of experiment: ADP-stimulated rotenone-sensitive OCR in permeabilized MDBK cells. The class given is cell-based, Bos taurus. The settings on record: MDBK permeabilised cells; for rotenone sensitive OCR after ADP stimulation, % of control, average / rotenone sensitive OCR after ADP stimulation, average: average of replicates. Details: rotenone sensitive OCR after ADP stimulation, average / rotenone sensitive OCR after ADP stimulation: unit not given here. The essentials: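 Cells permeabilized with 3 nM PMP in mannitol/sucrose buffer with 10 mM glutamate/malate, pH 7.4, 37 °C; biguanide preloaded 30 min, then 4 mM ADP, 2 μM rotenone at end. Rotenone-sensitive OCR normalized to pre-biguanide rate; uptake rates expressed relative to time-matched controls.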

Assay [4] relates to rat liver mitochondria. As to the kind of experiment: ADP-stimulated rotenone-sensitive OCR in isolated rat liver mitochondria. The class given is biochemical. More on the design: rotenone sensitive OCR after ADP stimulation, individual replicates / rotenone sensitive OCR after ADP stimulation, average: unit not given here. The method in brief: (§1)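 Isolated mitochondria were plated in a mannitol/sucrose buffer (pH 7.4) with glutamate/malate at 4 μg/well (mouse heart) or 16–20 μg/well (liver). Oxygen consumption was measured on a Seahorse XF96 at 32 °C. Biguanides at IC50/5 were allowed to accumulate for 15–20 min, then 4 mM ADP was added, with 2 μM rotenone added at the end.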

Assay [5] has as its system mouse liver mitochondria. Nature of the assay: ADP-stimulated rotenone-sensitive OCR in isolated mouse liver mitochondria. The class given is biochemical. Details: rotenone sensitive OCR after ADP stimulation, individual replicates / rotenone sensitive OCR after ADP stimulation, average: unit not given here. The essentials: as §1
[6] abbreviates: MDBK intact cells, average of replicates, biguanide at IC50/10.
Setting [7] is: MDBK intact cells, individual replicates, biguanide at IC50/10.
The mark [8] stands for this setting: individual replicates, biguanide at IC50/5.

With `NC(N)=NC(N)=NCCc1ccc(Cl)cc1` [compound 1, 2-[2-(4-chlorophenyl)ethyl]-1-(diaminomethylidene)guanidine], the “Complex II assay (succinate:O2 oxidoreduction), average” value in assay [1] is recorded as 92.41. For the same compound, the “rotenone sensitive OCR after 6 hours of biguanide exposure, % control, average” value in assay [2] (MDBK cells, biguanide at IC50/10) came out at 64.04 % control. Also, the “rotenone sensitive OCR after 6 hours of biguanide exposure, average” value in assay [2] (MDBK cells, biguanide at IC50/10, OCR normalized to OCR immediately prior to biguanide addition) worked out at 64.24. Besides, the “maximal rate of accumulation (estimated matrix concentration)” value in assay [2] (MDBK cells, biguanide at IC50/10 in the extracellular medium (phenformin 34 μM; compound 1 37 μM), estimated from OCR inhibition) is 1 µM/min. Further, in assay [2] (setting [6]), the “rotenone sensitive OCR after 40 mins of biguanide exposure, % control, average” value is 96.88 % control and the “rotenone sensitive OCR after 40 mins of biguanide exposure, average” value is 98.58. In addition, in assay [2] (setting [7]), the “rotenone sensitive OCR after 40 mins of biguanide exposure” value is 98.09 and 97.70 and 99.35 (3×) and 96.88 and 99.34; the “rotenone sensitive OCR after 40 mins of biguanide exposure, % control” value is 96.40 % control and 96.02 % control and 97.64 % control (3×) and 95.21 % control and 97.63 % control. Also, in assay [3], the “rotenone sensitive OCR after ADP stimulation, % of control, average” value (from here on “rotenone sensitive OCR … % of control, average”) is given as 20.60 % of control and the “rotenone sensitive OCR after ADP stimulation, average” value stood at 58.06. In assay [3] (biguanide at IC50/5), the “rotenone sensitive OCR … % of control, average” value is recorded as 20.60 % of control and the “rotenone sensitive OCR after ADP stimulation, average” value came out at 58.06. For the same compound, in assay [3] (setting [8]), the “rotenone sensitive OCR after ADP stimulation” value was 88.38 and 76.77 and 21.79 and 44.14 and 38.29 and 53.63 and 83.42; the “rotenone sensitive OCR after ADP stimulation, % of control” value is 31.36 % of control and 27.24 % of control and 7.73 % of control and 15.66 % of control and 13.59 % of control and 19.03 % of control and 29.60 % of control. Further, in assay [4] (average of replicates), the “rotenone sensitive OCR … % of control, average” value is recorded as 55.19 % of control and the “rotenone sensitive OCR after ADP stimulation, average” value stood at 15.13. In assay [4] (replicate 1-5), the “rotenone sensitive OCR after ADP stimulation, % of control, individual replicates” value was 67.97 % of control and 49.70 % of control and 53.49 % of control and 49.59 % of control; the “rotenone sensitive OCR after ADP stimulation, individual replicates” value was 18.64 and 13.63 and 14.67 and 13.60. Besides, in assay [5] (average of replicates), the “rotenone sensitive OCR … % of control, average” value is 43.22 % of control and the “rotenone sensitive OCR after ADP stimulation, average” value worked out at 14.99. In assay [5] (replicate 1-5), the “rotenone sensitive OCR after ADP stimulation, % of control, individual replicates” value was 45.82 % of control and 40.66 % of control and 43.16 % of control; the “rotenone sensitive OCR after ADP stimulation, individual replicates” value is 15.90 and 14.11 and 14.98.
